Measured values taken from patent US11241442B2, “Methods of use for TRP channel antagonist-based combination cancer therapies” (President and Fellows of Harvard College, priority 2017, dated 2022).

What was measured:
Format in all cases: cell-based
EL-12-58 cells [1] = experiment: Live cell number and cell death under H2O2 in EL-12-58 cells; settings: 10 μM AP-18; H2O2 for 72 h
Procedure: (§1) For the measurements of live cell number and cell death under treatment with H2O2, diamide, or chemotherapies, cells were cultured on 96-well plates in the presence or absence of these drugs for indicated times and stained with 5 μM bisBenzimide H 33342 trihydrochloride (Hoechst; Sigma) and 5 μM propidium iodide (PI; Sigma) for 1 h at 37° C. Hoechst- and/or PI-positive cells were counted using a laser scanning cytometer, Acumen Cellista (TTPLabTech). Apoptotic cells induced by H2O2 treatment were measured by staining with Annexin V-Alexa Fluor® 488 conjugate (Life Technologies) and PI in Ca^2+-containing solution (10 mM HEPES pH 7.4, 140 mM NaCl; 2.5 mM CaCl2), followed by flow cytometric measurement of fluorescence using a FACSCalibur. Flow cytometry plots are representative of three independent experiments. […] Viable cells were counted using the Countless Automated Cell Counters (Thermo Fisher Scientific). […] Hoechst- and/or PI-positive areas were measured using Acumen Cellista. Apoptotic cells induced by detachment were measured by staining with 5 μM Hoechst and 5 μM of CellEvent™ Caspase-3/7 Green Detection Reagent (Thermo Fisher Scientific) for 1 h at 37° C. without enzymatic dissociation of cell clumps. Hoechst- and/or CellEvent™ Caspase-3/7 Green Detection Reagent-positive areas were measured using Acumen Cellista. […]

HCC1569 spheroids = experiment: [H2O2]i by Hyper-2 in HCC1569 spheroids; settings: AP-18, 300 nM A-967079 or 5 mM NAC
Procedure: For the measurement of [H2O2]i levels in MCF-10A acini and HCC1569 spheroids, cells were transduced with a lentiviral vector encoding Hyper-2 or Hyper-2 (C199S). The Hyper-2 fluorescence was measured at 37° C. in HEPES-buffered saline (HBS) containing the following (in mM): 150 NaCl, 6 KCl, 1.2 MgSO4, 2 CaCl2, 11.5 glucose, and 25 HEPES (pH adjusted to 7.4 with NaOH). Fluorescence images of the cells were acquired through the Eclipse Ti-E microscope (Nikon) with ORCA-R2 cooled CCD camera (Hamamatsu Photonics) and analyzed with Metafluor image acquisition software (Molecular Devices). The 488:405-nm ratio images were obtained on a pixel-by-pixel basis. 3D images are shown as one section from midstructure. For the measurement of [H2O2]i levels in MCF-10A cells cultured in suspension, cell clumps were dissociated with trypsin and stained with 10 μM peroxy green-1 for 30 min at 37° C. Cells were then subjected to flow cytometric analysis (FACSCalibur; BD Biosciences). ROS levels determined by flow cytometry are reported as mean fluorescence intensity expressed in arbitrary units. Hyper-2 ratio images are representative from two independent experiments and averaged Hyper-2 ratio represents mean±SD from the sum of two independent experiments.

TRPA1 [2] = target: T1, TRPA1 (Homo sapiens, UniProt O75762); experiment: [Ca2+]i by fura-2 in HCC1569 spheroids; settings: AP-18, 300 nM A-967079 or 5 mM NAC
T1 construct: endogenous in cells; host or cells: HCC1569 breast cancer cells (2D culture or 3D spheroids; shGFP or shTRPA1 transduced)
T1 sequence (O75762 whole entry): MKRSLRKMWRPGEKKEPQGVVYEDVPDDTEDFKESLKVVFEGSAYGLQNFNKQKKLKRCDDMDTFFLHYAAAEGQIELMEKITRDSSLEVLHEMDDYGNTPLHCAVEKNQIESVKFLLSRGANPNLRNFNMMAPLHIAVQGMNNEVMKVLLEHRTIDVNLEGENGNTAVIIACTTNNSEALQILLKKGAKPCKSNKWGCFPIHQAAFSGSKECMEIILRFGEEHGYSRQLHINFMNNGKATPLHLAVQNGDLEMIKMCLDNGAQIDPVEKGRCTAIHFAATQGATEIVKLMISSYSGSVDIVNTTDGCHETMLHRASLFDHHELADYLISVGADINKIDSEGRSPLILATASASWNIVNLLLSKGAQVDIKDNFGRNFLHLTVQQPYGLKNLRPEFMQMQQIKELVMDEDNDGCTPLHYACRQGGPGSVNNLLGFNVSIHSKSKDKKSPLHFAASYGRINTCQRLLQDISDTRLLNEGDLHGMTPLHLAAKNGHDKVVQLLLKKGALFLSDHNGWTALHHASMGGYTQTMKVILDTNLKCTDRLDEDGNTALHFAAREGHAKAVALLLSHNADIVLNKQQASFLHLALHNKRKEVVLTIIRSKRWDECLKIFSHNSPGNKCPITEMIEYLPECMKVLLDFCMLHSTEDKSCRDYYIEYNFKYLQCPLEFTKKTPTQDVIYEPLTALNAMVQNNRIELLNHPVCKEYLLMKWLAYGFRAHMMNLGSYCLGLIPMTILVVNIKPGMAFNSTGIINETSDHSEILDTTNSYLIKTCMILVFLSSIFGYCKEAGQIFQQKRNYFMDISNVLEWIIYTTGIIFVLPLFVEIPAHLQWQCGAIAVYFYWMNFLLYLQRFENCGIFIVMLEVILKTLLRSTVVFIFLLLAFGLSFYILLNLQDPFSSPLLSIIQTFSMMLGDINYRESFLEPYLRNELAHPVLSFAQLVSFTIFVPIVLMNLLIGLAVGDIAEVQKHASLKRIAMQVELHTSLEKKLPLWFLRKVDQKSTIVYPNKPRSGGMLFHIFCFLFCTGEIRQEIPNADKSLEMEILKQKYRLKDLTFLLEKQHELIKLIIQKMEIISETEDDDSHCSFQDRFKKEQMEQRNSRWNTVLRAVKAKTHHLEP
Procedure: (§2) For the measurement of [Ca^2+]i levels in cells cultured in 2D or 3D (in Matrigel), cells were stained with 3.5 μM fura-2-AM (Life Technology) in the presence of 2.5 mM probenecid (Sigma) and 0.02% Pluronic F-127 (Sigma) for 45 min at 37° C. The fura-2 fluorescence was measured in HBS solution containing 1.25 mM probenecid at 37° C. Fluorescence images of the cells were acquired through the Eclipse Ti-E microscope with ORCA-R2 cooled CCD camera and analyzed with Metafluor. The 340:380-nm ratio images were obtained on a pixel-by-pixel basis and were converted to Ca^2+ concentrations by in vivo calibration using 5 μM ionomycin as described previously (Nishida et al., Biochem. Biophys. Res. Commun., 262:350-354, 1999). 3D images are shown as one section from midstructure. For the measurement of [Ca^2+]i levels in cells cultured in suspension, cell clumps were dissociated with trypsin and [Ca^2+]i levels were determined by using Fluo-4 NW Calcium Assay Kit (Molecular Probes). Cells were stained with Fluo-4 according to the manufacturer's instructions and subjected to flow cytometric analysis (FACSCalibur) using HBS as sheath fluid. [Ca^2+]i levels determined by flow cytometry are reported as mean fluorescence intensity expressed in arbitrary units. Time courses of [Ca^2+]i rises in 2D culture are representative of three independent experiments and averaged Δ[Ca^2+]i represents mean±SEM from the sum of three independent experiments. Fura-2 ratio images in 3D culture are representative of two independent experiments and averaged [Ca^2+]i in 3D culture represents mean±SEM from the sum of two independent experiments.

HCC1569 cells [3] = experiment: Soft agar anchorage-independent growth of HCC1569 cells
Procedure: Cells were added to the regular MCF-10A or HCC1569 growth media (±AP-18, A-967079, or Trolox) plus 0.4% low-melt agarose (Sigma) and layered onto a bed of growth media plus 0.5% low-melt agarose. Cells were fed every 4 days with growth media (±AP-18, A-967079, or Trolox) plus 0.4% low-melt agarose. At the indicated times, viable colonies were stained with iodonitrotetrazolium chloride (Sigma). Colony number and colony size were determined using ImageJ. Images shown are representative of at least three independent experiments.

TRPA1 [4] = target: T1, TRPA1; experiment: Ca2+ responses to carboplatin in HCC1569 cells; settings: 10 μM AP-18 or 300 nM A-967079
Procedure: as §2

HCC1569 cells [5] = experiment: Live cell number and cell death under carboplatin in HCC1569 cells; settings: carboplatin 72 h
Procedure: For the measurements of live cell number and cell death under treatment with H2O2, diamide, or chemotherapies, cells were cultured on 96-well plates in the presence or absence of these drugs for indicated times and stained with 5 μM bisBenzimide H 33342 trihydrochloride (Hoechst; Sigma) and 5 μM propidium iodide (PI; Sigma) for 1 h at 37° C. Hoechst- and/or PI-positive cells were counted using a laser scanning cytometer, Acumen Cellista (TTPLabTech). Apoptotic cells induced by H2O2 treatment were measured by staining with Annexin V-Alexa Fluor® 488 conjugate (Life Technologies) and PI in Ca^2+-containing solution (10 mM HEPES pH 7.4, 140 mM NaCl; 2.5 mM CaCl2), followed by flow cytometric measurement of fluorescence using a FACSCalibur. Flow cytometry plots are representative of three independent experiments. For the counting of viable cells cultured in suspension, cell clumps were dissociated with trypsin and stained with trypan blue. Viable cells were counted using the Countless Automated Cell Counters (Thermo Fisher Scientific). For the measurement of percentage of dead cells cultured in suspension, cells were cultured on poly HEMA-coated 96-well plates and stained with 5 μM Hoechst and 5 μM PI for 1 h at 37° C. without enzymatic dissociation of cell clumps. Hoechst- and/or PI-positive areas were measured using Acumen Cellista. Apoptotic cells induced by detachment were measured by staining with 5 μM Hoechst and 5 μM of CellEvent™ Caspase-3/7 Green Detection Reagent (Thermo Fisher Scientific) for 1 h at 37° C. without enzymatic dissociation of cell clumps. Hoechst- and/or CellEvent™ Caspase-3/7 Green Detection Reagent-positive areas were measured using Acumen Cellista. For the cell cycle analysis, enzymatically dissociated cells were fixed with ice-cold 70% EtOH for at least 30 min at 4° C., washed three times with PBS at 4° C., resuspended in PBS, treated with 100 μg/ml RNase A (Sigma), and stained with 50 μg/ml PI. The stained samples were subjected to flow cytometric analysis (FACSCalibur).

EL-12-58 cells [6] = experiment: Live cell number under carboplatin in EL-12-58 cells; settings: 10 μM AP-18, carboplatin 72 h
Procedure: as §1

HCC1500 = experiment: Live cell number under carboplatin in HCC1500 cells; settings: 10 μM AP-18; carboplatin 72 h; HCC1500, very low TRPA1
Procedure: as §1

BT-549 = experiment: Live cell number under carboplatin in BT-549 cells; settings: 10 μM AP-18; carboplatin 72 h; BT-549, very low TRPA1
Procedure: as §1

NSCLC cells = experiment: H2O2- and carboplatin-induced cytotoxicity in NSCLC cells; settings: TRPA1 expression-dependent
Procedure: as §1

AP-18
sensitization to H2O2 cytotoxicity (EL-12-58 cells [1]): sensitized
increase in [H2O2]i (Hyper-2) in inner region of spheroids (HCC1569 spheroids): unaffected
elevated [Ca2+]i of inner cells of spheroids (TRPA1 [2]): suppressed
anchorage-independent growth (number and average size of colonies) (HCC1569 cells [3]): impaired
[Ca2+]i rises upon carboplatin treatment (TRPA1 [4]): significantly suppressed
oscillatory Ca2+ responses upon carboplatin treatment (TRPA1 [4]): significantly suppressed
cell death in response to carboplatin treatment (HCC1569 cells [5]): enhanced
live cell number in response to carboplatin treatment (HCC1569 cells [5]): substantially suppressed
sensitization to carboplatin (EL-12-58 cells [6]): sensitized
sensitization to carboplatin (HCC1500): minimal to no effect
sensitization to carboplatin (BT-549): minimal to no effect
sensitization to carboplatin-induced cytotoxicity (NSCLC cells; 10 μM AP-18, carboplatin 72 h): sensitized
sensitization to H2O2-induced cytotoxicity (NSCLC cells): sensitized
